Data taken from patent US20250230193A1, “CYCLIC COMPOUND HAVING SELECTIVE KRAS INHIBITORY EFFECT ON HRAS AND NRAS” (CHUGAI SEIYAKU KABUSHIKI KAISHA, priority 2022, published 2025).
*1 amine or outer side, *2 acyl side, *3 side chain or, on linkers, in order; H or OH if unused. Where a SMILES comes first, the peptide text is derived from it. Bridges are numbered along the chain shown (N, C = ends). [ ]: non-standard residue; d: D form. The star is where a group is joined. hPhe(3-Cl-4-CF3) = N[C@@H](CCc1ccc(C(F)(F)F)c(Cl)c1)C(=O)O; NPrPhe(4-CF3) = CCCN[C@@H](Cc1ccc(C(F)(F)F)cc1)C(=O)O; X39 = Cc1ccc(C[C@@H](C(=O)[*:2])N(CC(C)C)[*:1])cc1; NPrPhe(4-Me) = CCCN[C@@H](Cc1ccc(C)cc1)C(=O)O; NMeAbu(4,4,4-F3) = CN[C@@H](CC(F)(F)F)C(=O)O; NMeGly(cPent) = CN[C@H](C(=O)O)C1CCCC1; Pro(4,4-F2) = O=C(O)[C@@H]1CC(F)(F)CN1; Hyp = O=C(O)[C@@H]1C[C@@H](O)CN1; NMeD = CN[C@@H](CC(=O)O)C(=O)O; NMeL = CN[C@@H](CC(C)C)C(=O)O; Pip = O=C(O)[C@@H]1CCCCN1; Morpholide = C1CN(*)CCO1; NMeA = CN[C@@H](C)C(=O)O; Ac5c = NC1(C(=O)O)CCCC1; Aze = O=C(O)[C@@H]1CCN1; Ac4c = NC1(C(=O)O)CCC1; Sar = CNCC(=O)O

How the values were obtained:
[1] = molecular target: GDP-bound NRAS wild-type protein (Homo sapiens, UniProt P01111); experiment: Binding to NRAS by surface plasmon resonance (SPR), Single Cycle Kinetics; conditions: SPR; for NRAS/KRAS (ratio of KD value with respect to NRAS to KD value with respect to KRAS): GDP-bound NRAS wild-type vs GDP-bound KRAS wild-type
[2] = molecular target: GDP-bound HRAS wild-type protein (Homo sapiens, UniProt P01112); experiment: Binding to HRAS by surface plasmon resonance (SPR), Single Cycle Kinetics; conditions: SPR; for HRAS/KRAS (ratio of KD value with respect to HRAS to KD value with respect to KRAS): GDP-bound HRAS wild-type vs GDP-bound KRAS wild-type
Sequence of GDP-bound HRAS wild-type protein (P01112 whole entry): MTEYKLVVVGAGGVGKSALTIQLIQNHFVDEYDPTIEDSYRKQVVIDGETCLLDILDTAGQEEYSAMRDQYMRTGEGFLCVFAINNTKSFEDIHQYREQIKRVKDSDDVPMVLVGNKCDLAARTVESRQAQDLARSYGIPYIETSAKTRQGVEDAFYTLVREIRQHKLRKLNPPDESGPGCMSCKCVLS

Sequence of GDP-bound NRAS wild-type protein (P01111 whole entry): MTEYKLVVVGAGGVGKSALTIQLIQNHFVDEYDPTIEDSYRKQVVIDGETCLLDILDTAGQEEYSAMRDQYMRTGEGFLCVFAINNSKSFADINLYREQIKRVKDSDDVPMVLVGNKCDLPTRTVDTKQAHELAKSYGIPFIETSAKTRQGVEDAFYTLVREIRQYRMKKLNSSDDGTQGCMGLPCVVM

CC[C@H](C)[C@@H]1NC(=O)[C@H](CC(C)C)N(C)C(=O)C[C@@H](C(=O)N2CCOCC2)N(C)C(=O)[C@H](C2CCCC2)N(C)C(=O)C2(CCCC2)NC(=O)[C@@H]2CCCN2C(=O)[C@H](CCc2ccc(C(F)(F)F)c(Cl)c2)NC(=O)CN(C)C(=O)[C@H](Cc2ccc(C)cc2)N(CC(C)C)C(=O)CN(C)C(=O)CN(C)C1=O [PP0063] ([NMeL]I[Sar][Sar][X39][Sar][hPhe(3-Cl-4-CF3)]P[Ac5c][NMeGly(cPent)][NMeD]-Morpholide; lactam N-11)
NRAS/KRAS (ratio of KD for GDP-bound NRAS wild-type to KD for KRAS) [1]: C (A compound having a KD ratio of 0.1 or more and less than 3 is denoted as C) | HRAS/KRAS (ratio of KD for GDP-bound HRAS wild-type to KD for KRAS) [2]: C (A compound having a KD ratio of 0.1 or more and less than 3 is denoted as C)

CC[C@H](C)[C@@H]1NC(=O)[C@H](C(C)C)N(C)C(=O)C[C@@H](C(=O)N(C)CC)N(C)C(=O)[C@H](C2CCCC2)N(C)C(=O)C2(CCC2)NC(=O)[C@@H]2C[C@H](C)CN2C(=O)[C@H](CCc2ccc(C(F)(F)F)c(OC)c2)NC(=O)CN(C)C(=O)[C@H](Cc2ccc(C(F)(F)F)cc2)N2CC/C=C\C[C@@H](C2=O)N(C)C(=O)CN(C)C1=O [PP2065]
NRAS/KRAS (ratio of KD value with respect to NRAS to KD value with respect to KRAS) [1]: A (a compound having 10 or more and less than 20 is denoted as A) | HRAS/KRAS (ratio of KD value with respect to HRAS to KD value with respect to KRAS) [2]: B (a compound having 3 or more and less than 10 is denoted as B)

CCCN1C(=O)[C@@H]2CCN2C(=O)[C@H](C)N(C)C(=O)[C@H]([C@@H](C)CC)NC(=O)[C@H](CC(F)(F)F)N(C)C(=O)C[C@@H](C(=O)N2CCOCC2)N(C)C(=O)[C@H](C2CCCC2)N(C)C(=O)C2(CCCC2)NC(=O)[C@@H]2CCCN2C(=O)[C@H](CCc2ccc(C(F)(F)F)c(Cl)c2)NC(=O)CN(C)C(=O)[C@@H]1Cc1ccc(C(F)(F)F)cc1 [PP0191] ([NMeAbu(4,4,4-F3)]I[NMeA][Aze][NPrPhe(4-CF3)][Sar][hPhe(3-Cl-4-CF3)]P[Ac5c][NMeGly(cPent)][NMeD]-Morpholide; lactam N-11)
NRAS/KRAS (ratio of KD for GDP-bound NRAS wild-type to KD for KRAS) [1]: C (A compound having a KD ratio of 0.1 or more and less than 3 is denoted as C) | HRAS/KRAS (ratio of KD for GDP-bound HRAS wild-type to KD for KRAS) [2]: B (a compound having 3 or more and less than 10 is denoted as B)

CCCN1C(=O)[C@@H]2CCN2C(=O)[C@@H]2CCCCN2C(=O)[C@H]([C@@H](C)CC)NC(=O)[C@H](CC(C)C)N(C)C(=O)C[C@@H](C(=O)N2CCOCC2)N(C)C(=O)[C@H](C2CCCC2)N(C)C(=O)C2(CCCC2)NC(=O)[C@@H]2CCCN2C(=O)[C@H](CCc2ccc(C(F)(F)F)c(Cl)c2)NC(=O)CN(C)C(=O)[C@@H]1Cc1ccc(C)cc1 [PP0070] ([NMeL]I[Pip][Aze][NPrPhe(4-Me)][Sar][hPhe(3-Cl-4-CF3)]P[Ac5c][NMeGly(cPent)][NMeD]-Morpholide; lactam N-11)
NRAS/KRAS (ratio of KD for GDP-bound NRAS wild-type to KD for KRAS) [1]: C (A compound having a KD ratio of 0.1 or more and less than 3 is denoted as C) | HRAS/KRAS (ratio of KD for GDP-bound HRAS wild-type to KD for KRAS) [2]: B (a compound having 3 or more and less than 10 is denoted as B)

CCCN1C(=O)CN(C)C(=O)CN(C)C(=O)[C@H]([C@@H](C)CC)NC(=O)[C@H](CC(C)C)N(C)C(=O)C[C@@H](C(=O)N2CCOCC2)NC(=O)[C@H](C2CCCC2)N(C)C(=O)C2(CCC2)NC(=O)[C@@H]2CC(F)(F)CN2C(=O)[C@H](CCc2ccc(C(F)(F)F)c(Cl)c2)NC(=O)CN(C)C(=O)[C@@H]1Cc1ccc(C(F)(F)F)cc1 [PP0322] ([NMeL]I[Sar][Sar][NPrPhe(4-CF3)][Sar][hPhe(3-Cl-4-CF3)][Pro(4,4-F2)][Ac4c][NMeGly(cPent)]D-Morpholide; lactam N-11)
NRAS/KRAS (ratio of KD for GDP-bound NRAS wild-type to KD for KRAS) [1]: B (a compound having 3 or more and less than 10 is denoted as B) | HRAS/KRAS (ratio of KD for GDP-bound HRAS wild-type to KD for KRAS) [2]: C (A compound having a KD ratio of 0.1 or more and less than 3 is denoted as C)

CCO[C@@H]1C[C@H]2C(=O)NC3(CCC3)C(=O)N(C)[C@@H](C3CCCC3)C(=O)N(C)[C@H](C(=O)N(C)C)CC(=O)N(C)[C@@H](CC3CC3)C(=O)N[C@@H]([C@@H](C)CC)C(=O)N(C)CC(=O)N(C)[C@H]3CCCCCN(C3=O)[C@@H](Cc3ccc(F)cc3)C(=O)N(C)CC(=O)N[C@@H](CCc3cc(F)c(C(F)(F)F)c(F)c3)C(=O)N2C1 [PP1192]
NRAS/KRAS (ratio of KD value with respect to NRAS to KD value with respect to KRAS) ([1]; KD ratio): B (a compound having 3 or more and less than 10 is denoted as B) | HRAS/KRAS (ratio of KD value with respect to HRAS to KD value with respect to KRAS) ([2]; KD ratio): A (a compound having 10 or more and less than 20 is denoted as A)

CCCN1C(=O)CN(C)C(=O)CNC(=O)[C@H]([C@@H](C)CC)NC(=O)[C@H](CC(C)C)N(C)C(=O)C[C@@H](C(=O)N(C)C)NC(=O)[C@H](C2CCCC2)N(C)C(=O)C2(CCCC2)NC(=O)[C@@H]2C[C@@H](OCC)CN2C(=O)[C@H](CCc2ccc(C(F)(F)F)c(Cl)c2)NC(=O)CN(C)C(=O)[C@@H]1Cc1ccc(C(F)(F)F)cc1 [PP0365] ([NMeL]IG[Sar][NPrPhe(4-CF3)][Sar][hPhe(3-Cl-4-CF3)][Hyp](Et)[Ac5c][NMeGly(cPent)]D-NMe2; lactam N-11)
NRAS/KRAS (ratio of KD for GDP-bound NRAS wild-type to KD for KRAS) [1]: B (a compound having 3 or more and less than 10 is denoted as B) | HRAS/KRAS (ratio of KD for GDP-bound HRAS wild-type to KD for KRAS) [2]: B (a compound having 3 or more and less than 10 is denoted as B)
